ChEMBL document CHEMBL1914399 (Bioorg Med Chem Lett, 2011)

Assay: Apparent permeability across apical to basolateral side of dog MDCK cells at 50 uM measured every 15 mins for 1.5 hrs by LC-MS/MS analysis
Assay type: ADME, cell-based, Canis lupus familiaris

**Q.** With COCCc1ccc(OCC(O)CNC(C)C)cc1 (stereo unspecified) [METOPROLOL] as the compound, how does the Papp A→B at 1.5 h, 50 µM read?
**A.** The Papp A→B at 1.5 h, 50 µM was 156 nm/s.
